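96-well plates; 48 h exposure; 5 concentrations. Endpoints by linear interpolation between flanking doses. Not reached: highest tested concentration assigned. GI50 = concentration required for 50% inhibition of growth. The concentration for full growth arrest is given as TGI.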

Test systems include LXFL 529 NSCLC; UACC-62 melanoma; M19-MEL melanoma; SN12C renal; UACC-257 melanoma; SK-MEL-5 melanoma; SF-295 CNS; A549 NSCLC; K-562 leukemia; HL-60(TB) leukemia.
Common to all, as to assay: inhibition of tumour cell growth, NCI panel, 48 h

In the case of `COc1cccc(NC(=O)CC(=O)N2N=C(N3c4ccccc4Sc4ccccc43)CC2c2ccccc2)c1` (stereo unspecified), the TGI in the experiment on LXFL 529 NSCLC, in the experiment on UACC-62 melanoma, in the experiment with M19-MEL melanoma, in the experiment with SN12C renal, in the experiment with UACC-257 melanoma and in the experiment with SK-MEL-5 melanoma was > 100 µM throughout. Also, the TGI with SF-295 CNS and in the experiment on A549 NSCLC was > 100 µM throughout.
As for `CC(=O)[O][Sn]([CH2]c1ccccc1)([CH2]c1ccccc1)[CH2]c1ccccc1`, the GI50 is 3400 nM in the experiment on K-562 leukemia; > 10000 nM with UACC-62 melanoma; > 5790 nM in the experiment with HL-60(TB) leukemia; > 10000 nM in the experiment on SN12C renal; > 10 µM with UACC-257 melanoma; 4150 nM in the experiment with SK-MEL-5 melanoma. Moreover, the GI50 was > 5.52 µM in the experiment with SF-295 CNS and > 8990 nM in the experiment with A549 NSCLC. In addition, the TGI is > 4.64 µM in the experiment with K-562 leukemia; > 10 µM in the experiment on UACC-62 melanoma; > 7.61 µM in the experiment on HL-60(TB) leukemia; > 10 µM in the experiment with SN12C renal; > 10 µM with UACC-257 melanoma; > 6.51 µM in the experiment with SK-MEL-5 melanoma. Also, the TGI is > 6.84 µM with SF-295 CNS and > 10 µM in the experiment on A549 NSCLC.
Consider `COc1ccc(/C=C(\C(=O)NCc2cccnc2)S(=O)(=O)c2ccccc2)cc1OC`, for which the GI50 in the experiment with K-562 leukemia was 3330 nM; in the experiment on UACC-62 melanoma, 1760 nM; with HL-60(TB) leukemia it was 2010 nM; with SN12C renal, 2490 nM; with UACC-257 melanoma, 3.03 µM; in the experiment on SK-MEL-5 melanoma, 2970 nM. The values for the GI50 in the experiment on SF-295 CNS and with A549 NSCLC were 2.95 µM and 2860 nM, respectively. Besides, the TGI with K-562 leukemia is > 100 µM; in the experiment with UACC-62 melanoma, 3.74 µM; in the experiment with HL-60(TB) leukemia it was 6.42 µM; in the experiment with SN12C renal, 9.15 µM; in the experiment with UACC-257 melanoma, 13.9 µM; with SK-MEL-5 melanoma, 10.9 µM. Further, the TGI was found to be 9.11 µM in the experiment with SF-295 CNS and 13.4 µM in the experiment on A549 NSCLC.
As for `Cc1cnc(CNC(=O)c2c(=O)c3ccc(N4CCCN(C)CC4)nc3n3c2sc2ccccc23)cn1`, the GI50 in the experiment with K-562 leukemia was 1820 nM; in the experiment on UACC-62 melanoma, 7690 nM; with HL-60(TB) leukemia, 11200 nM; with SN12C renal, 1320 nM; in the experiment with UACC-257 melanoma, 17 µM; with SK-MEL-5 melanoma, 8350 nM. Also, the values for the GI50 in the experiment on SF-295 CNS and in the experiment with A549 NSCLC were 1.32 µM and 330 nM, respectively. In addition, the TGI with K-562 leukemia amounted to 10.6 µM; in the experiment with UACC-62 melanoma, 28.1 µM; in the experiment on HL-60(TB) leukemia it was 31.3 µM; in the experiment on SN12C renal, 19.9 µM; in the experiment with UACC-257 melanoma it was 32.9 µM; in the experiment on SK-MEL-5 melanoma it was 22.1 µM. The values for the TGI in the experiment on SF-295 CNS and with A549 NSCLC were 18.6 µM and 7.23 µM, respectively.
With `c1ccc2[nH]c(-c3cc(-c4ccc5c(c4)OCO5)n[nH]3)nc2c1`, the GI50 was 3830 nM with K-562 leukemia; 3080 nM with UACC-62 melanoma; 2270 nM in the experiment with HL-60(TB) leukemia; 3730 nM with SN12C renal; 6 µM with UACC-257 melanoma; 1530 nM in the experiment with SK-MEL-5 melanoma. In addition, the GI50 was 3.24 µM with SF-295 CNS and 4230 nM in the experiment on A549 NSCLC. For the same compound, the TGI worked out at 22.1 µM in the experiment on K-562 leukemia; 14.7 µM with UACC-62 melanoma; 20.2 µM in the experiment with HL-60(TB) leukemia; 21.3 µM in the experiment with SN12C renal; 23.2 µM with UACC-257 melanoma; 3.55 µM in the experiment on SK-MEL-5 melanoma. The results for the TGI with SF-295 CNS and in the experiment on A549 NSCLC were 14.6 µM and 19.7 µM, respectively.
For the compound `C=C1CC[C@@H]2[C@](C)(COC(C)=O)[C@H](OC(C)=O)CC[C@@]2(C)[C@@H]1CC(Nc1ccc(S(=O)(=O)Nc2ccc(Cl)nn2)cc1)C1=CCOC1=O` (stereo partly specified), the GI50 was 526 nM in the experiment with K-562 leukemia; 1490 nM in the experiment on UACC-62 melanoma; 1320 nM in the experiment with HL-60(TB) leukemia; 1250 nM in the experiment with SN12C renal; 1.67 µM with UACC-257 melanoma; 1600 nM with SK-MEL-5 melanoma. For the same compound, the GI50 in the experiment with SF-295 CNS is 3.28 µM; in the experiment with A549 NSCLC, 2960 nM. The TGI amounted to 5.19 µM with K-562 leukemia; 3.86 µM in the experiment with UACC-62 melanoma; 4.44 µM in the experiment on HL-60(TB) leukemia; 3.66 µM with SN12C renal; 3.89 µM with UACC-257 melanoma; 3.13 µM with SK-MEL-5 melanoma. The values for the TGI in the experiment on SF-295 CNS and with A549 NSCLC were 12.6 µM and 10.7 µM, respectively.
As for `COc1ccc(C2=CC(c3ccc(OC)cc3Br)N3C=CSC3=N2)cc1` (stereo unspecified), the GI50 is 2470 nM in the experiment with K-562 leukemia; 2790 nM in the experiment on UACC-62 melanoma; 3200 nM in the experiment with HL-60(TB) leukemia; 10000 nM with SN12C renal; 10.8 µM with UACC-257 melanoma; 4320 nM in the experiment on SK-MEL-5 melanoma. The values for the GI50 with SF-295 CNS and in the experiment on A549 NSCLC were 11.5 µM and 10500 nM, respectively. Further, the TGI with K-562 leukemia is 8.26 µM; with UACC-62 melanoma it was 10.7 µM; with HL-60(TB) leukemia, 19.3 µM; with SN12C renal, 25.5 µM; in the experiment on UACC-257 melanoma, 31.3 µM; with SK-MEL-5 melanoma it was 16.6 µM. For the same compound, the TGI in the experiment with SF-295 CNS is 38.7 µM; in the experiment on A549 NSCLC, 39 µM.
With `CC1=C(CCC(C)NCc2ccc(OCCCN3CCCCC3)cc2)C(C)(C)CCC1` (stereo unspecified), the GI50 was 227 nM with K-562 leukemia; 1940 nM in the experiment on UACC-62 melanoma; 2140 nM in the experiment with HL-60(TB) leukemia; 1870 nM with SN12C renal; 2.2 µM in the experiment on UACC-257 melanoma; 1680 nM in the experiment with SK-MEL-5 melanoma. Moreover, the figures for the GI50 in the experiment on SF-295 CNS and in the experiment with A549 NSCLC were 1.66 µM and 2170 nM, respectively. The TGI in the experiment on K-562 leukemia came out at 0.509 µM; in the experiment on UACC-62 melanoma, 3.73 µM; in the experiment with HL-60(TB) leukemia, 4.2 µM; with SN12C renal, 3.95 µM; in the experiment with UACC-257 melanoma it was 4.03 µM; in the experiment with SK-MEL-5 melanoma it was 3.06 µM. Moreover, the TGI in the experiment with SF-295 CNS was 3.23 µM; in the experiment on A549 NSCLC, 4.35 µM.
Consider `O=[N+]([O-])c1ccc(N=Nc2ccc(O)c3ccccc23)cc1`, for which the GI50 was 3130 nM with K-562 leukemia; 4760 nM with UACC-62 melanoma; 5390 nM in the experiment on HL-60(TB) leukemia; 3550 nM in the experiment with SN12C renal; 3.6 µM with UACC-257 melanoma; 2550 nM in the experiment on SK-MEL-5 melanoma. The GI50 with SF-295 CNS was 9.89 µM; in the experiment on A549 NSCLC, 12000 nM. The TGI in the experiment with K-562 leukemia was > 100 µM; in the experiment on UACC-62 melanoma it was 32.9 µM; in the experiment with HL-60(TB) leukemia, 21 µM; with SN12C renal, > 100 µM; with UACC-257 melanoma, 14.6 µM; with SK-MEL-5 melanoma, 13.6 µM. In addition, the TGI with SF-295 CNS and in the experiment with A549 NSCLC was > 100 µM each time.

For the origin of these results see PubChem BioAssay (NCI).
